We go through two molecules from patent publication US20230292747A1, “Composition for use in agriculture” (Bayer Aktiengesellschaft, priority 2020, published 2023).

Data set [1] can be described thus: Measurement of water hardness before and after adding softeners (AQUADUR test strips). Type of data set: physicochemical. How it is done:
(§1) • Soft water (Milli-Q water), self made hard water and very hard water collected from the field (sample A) were used in the assays. Self made hard water was prepared by adding magnesium sulfate to the tap water (440 mg MgSO4/1 L tap water) to achieve 25° d (˜445 ppm). […] The water softeners were used in concentrations described in Table 2. First, the softeners were added to Sample A, self made hard and soft water samples and the water hardness was determined with test strips (see Table 3). Next, Flipper (0,5%, corresponding to a fatty acid derivative content of 2.4 g/l) was mixed to the different water plus softener solutions and subsequently the samples were sprayed on plants infected with aphids. Additionally, another biological product based on fatty acid derivatives (product Neudosan® Neu available from Certis Europe B.V.) was tested in combination with the softener Slox and a softener based on TSCA(in the following named “Coded” (for concentrations see Table 2) in hard vs soft water against aphids as described above. The efficacy of Neudosan (0,5% and 1% corresponding to a fatty acid derivative content of 2.575 g/l and 5,15 g/1) was compared to the efficacy of Flipper (0,5% and 1% corresponding to a fatty acid derivative content of 2.4 g/l and 4,8 g/1) with and without softeners (see Table 5). • Four single-leaf pepper or cotton plants infected with mixed population of Myzus persicae or Aphis gossypii were used in the bioassays. The infected plants were sprayed with the prepared solutions by using an automatic spraying system machine with integrated residue drying and afterwards incubated in a greenhouse chamber under controlled conditions (25±1° C. and 55±5% RH).

In the next data set the test system is Myzus persicae. Briefly: Aphid spray bioassay on infected pepper plants, insect mortality on day seven post treatment. It counts as in vivo. As to conditions: day 7. The protocol: (§2) • The laboratory colonies of Myzus persicae and Aphis gossypii were reared on pea and cotton plants under controlled conditions 25±1° C. and a 55±5% relative humidity. • Experiments were conducted at RT using pepper (Capsicum annuum) for Myzus persicae and cotton (Gossypium herbaceum) for Aphis gossypii.
as §1
(§3) The tests were conducted according to the protocol described in Example 1.

In a further data set the test system is Aphis gossypii. Briefly: Aphid spray bioassay on infected cotton plants, insect mortality on day seven post treatment. It counts as in vivo. The protocol: as §2, §1, §3
The subject of the next data set is pepper (Capsicum annuum). Type of data set: in vivo. Particulars: pepper plants.
The subject of data set [2] is cotton (Gossypium herbaceum). As to conditions: cotton plants. The protocol:
as §2
• Soft water (Milli-Q water), self made hard water and very hard water collected from the field (sample A) were used in the assays. Self made hard water was prepared by adding magnesium sulfate to the tap water (440 mg MgSO4/1 L tap water) to achieve 25° d (˜445 ppm). […] The water softeners were used in concentrations described in Table 2. First, the softeners were added to Sample A, self made hard and soft water samples and the water hardness was determined with test strips (see Table 3). Next, Flipper (0,5%, corresponding to a fatty acid derivative content of 2.4 g/l) was mixed to the different water plus softener solutions and subsequently the samples were sprayed on plants infected with aphids. […]

Setting [3] is: field collected water Sample A (>25 °D before), softener at % printed in row.
Where [4] appears, read: field collected water Sample A (>445 ppm before), converted 1 °D = 17.8 ppm.
Where [5] appears, read: self made hard water (25 °D before), softener at % printed in row.
The mark [6] stands for this setting: self made hard water (445 ppm before), converted 1 °D = 17.8 ppm.
The mark [7] stands for this setting: soft water (0 ppm before), converted 1 °D = 17.8 ppm.
Setting [8] is: soft water (Milli-Q, 0 °D before), softener at % printed in row.
Setting [9] is: 0.5% Flipper + named softener (% printed in row) in self made hard water.
Setting [10] is: 0.5% Flipper + named softener (% printed in row) in soft water.
Where [11] appears, read: 0.5% Flipper + named softener (% printed in row) in self made hard water, cotton, day 7.
Where [12] appears, read: 0.5% Flipper + named softener in self made hard water.
The mark [13] stands for this setting: 0.5% Flipper + named softener in soft water.

The structures appear in SMILES notation. Where two headings read alike, the source gives them in different places.

`O=C([O-])CC(O)(CC(=O)[O-])C(=O)[O-].[Na+].[Na+].[Na+]` [TSCA, Trisodium citric acid]: the “Water hardness after adding softener” value stood at 20 °D in data set [1] (setting [3]); 356 ppm in data set [1] (setting [4]); 20 °D in data set [1] (setting [5]); 356 ppm in data set [1] (setting [6]); 0 ppm in data set [1] (setting [7]); 0 °D in data set [1] (setting [8]). The results for the “Efficacy of 0.5% Flipper against Myzus persicae, after adding softeners” value in the data set with Myzus persicae (setting [9]) and in the data set with Myzus persicae (setting [10]) were 55% and 67.5%, respectively. Also, the “Efficacy of 0.5% Flipper against Aphis gossypii, after adding softeners” value with Aphis gossypii (setting [11]) was 55%; with Aphis gossypii (0.5% Flipper + named softener (% printed in row) in soft water, cotton, day 7), 70%.

As to `O=C(O)CN(CCN(CC(=O)O)CC(=O)O)CC(=O)O` [EDTA, Ethylene diamine tetraacetate], the PTX entry is reported as “strong” in the data set on pepper (Capsicum annuum) (setting [12]), “Strong” in the data set on pepper (Capsicum annuum) (setting [13]), “slight” in data set [2] (setting [12]) and 72.5 (slight in data set [2] (setting [13]). Also, the “Water hardness after adding softener” value in data set [1] (setting [3]) is listed as 0 °D; in data set [1] (setting [4]) it was 0 ppm; in data set [1] (setting [5]), 0 °D; in data set [1] (setting [6]), 0 ppm; in data set [1] (setting [7]), 0 ppm; in data set [1] (setting [8]), 0 °D. The “Efficacy of 0.5% Flipper against Myzus persicae, after adding softeners” value in the data set with Myzus persicae (setting [9]) came out at 81.25%; with Myzus persicae (setting [10]), 97%. For the same molecule, the “Efficacy of 0.5% Flipper against Aphis gossypii, after adding softeners” value with Aphis gossypii (setting [11]) is reported as 65%; in the data set with Aphis gossypii (in vivo) it was 72.5 (slight %.
